What was measured:
[1] = system: R 604 culture (Lactococcus lactis); assay: Yield of Lactococcus lactis fermentation at standard anaerobic high-OD conditions; type: cell-based
Procedure: To illustrate the effect of adding extra purine containing compounds to an already enriched and optimized media two different types of industrial scale fermentation were compared, one with and one without 0.3% w/w inosine added.
The present experiment was performed using the commercially available R 604 culture, which is available from Chr. Hansen A/S, Hoersholm, Denmark (catalogue no. 200113).
The cultures were cultured in a medium having the following composition: Casein hydrolysate (Oxoid, Basingstoke, UK, Product Code L41), 30 g/l; Primatone RL (Quest, Naarden, The Netherlands, Product Code 5X59051), 30 g/l; soya peptone (Oxoid, Basingstoke, UK, Product Code L44), 30 g/l; yeast extract (Oxoid, Basingstoke, UK, Product Code L21), 15 g/l; MgSO4, 1.5 g/l; Na-ascorbate, 3 g/l; and lactose 50 g/l.
The medium was sterilized by UHT-treatment (143° C. for 8 sec.).
The fermentation was performed in a 550 L industrial fermentation tank without aeration at 30° C. using 1% (w/w) of the culture mentioned above as inoculum. At high OD conditions the fermentation is essentially anaerobic. The cultures were allowed to acidify to pH 6.0. The pH was subsequently maintained at 6.0 by controlled addition of 13.4 N NH4OH.
When no further base consumption was detected, the respective culture was cooled down to about 10° C.
Following cooling, the bacteria in culture media were concentrated 6-18 times by centrifugation and subsequently frozen as pellets in liquid nitrogen at one atmosphere of pressure to produce a so-called frozen Direct Vat Set culture (F-DVS). The F-DVS pellets were stored at −50° C. until further analysis
The yields of the fermentations were specified in two different ways: • 1) by the obtained biomass measured as the Optical Density at 600 nm (OD600), or • 2) by kg of F-DVS culture pr. 100 L fermentation medium wherein the F-DVS culture have an “acidification activity” of 4.8-5.1 according to the Pearce test described in Example 2: Analytical Procedure QAm-043.

[2] = system: Streptococcus thermophilus culture CHQ-18; assay: Yield of Streptococcus thermophilus fermentation at standard anaerobic high-OD conditions; type: cell-based; conditions: 0.2% w/w added, 3 L tank, 40° C., pH 6.0
Procedure: 0.2% w/w inosine is approximately 7 mM inosine.
This experiment was performed to investigate the effect of adding extra purine containing compounds to an already enriched and optimized media to be used for anaerobic fermentation at high OD-conditions.
The present experiment was performed using the commercially available Streptococcus thermophilus culture CHQ-18, which is available from Chr. Hansen A/S, Hoersholm, Denmark.
The cultures were cultured in a rich medium based on complex medium components, BioSpringer yeast extract 207, Arla skim milk powder (Milex 240), and lactose.
The fermentation was performed in a 3 L agitated fermentation tank at 40° C. using 0.1% (w/w) of the culture mentioned above as inoculum. The pH was maintained at 6.0 by addition of 13.4 N NH4OH. Anaerobic conditions were ensured by flushing with nitrogen in head space (1.5 l/min). Agitation was 300 rpm.
The yields of the fermentations were specified by the obtained biomass measured as the Optical Density at 600 nm (OD600) of unconcentrated samples sampled during the fermentation.

[3] = system: L. lactis subsp. lactis CHCC2862; assay: Proteomics (2D protein gels) for detection of exogenous purines in the medium; type: cell-based, Lactococcus lactis subsp. lactis; conditions: 0.2% inosine, SA medium with 1% glucose
Procedure: To set up a specific method for detection of the presence/absence of exogenous purines in the medium we inoculated L. lactis subsp. lactis CHCC2862 into defined SA medium with 1% glucose. This medium is devoid of nucleo compounds (Jensen & Hammer 1993). Cultures were set up at 30° C. with and without 0.2% inosine and incubated overnight. Exponentially growing cells were then inoculated into fresh medium at an OD600 of around 0.1. At OD 0.8 (exponential growth) and in stationary phase cells were harvested and 2D protein gels were produced.
In general around 3-400 protein spots were detectable on the gels with the pH range 4-7. For OD 0.8 there were less than 10 spots that were present from the culture without inosine, but absent (or very weak) from the culture with inosine. […] Four of the strongest spots present only on the gel produced from the culture without purines were subjected to in-gel digestion and mass spectrometry identification. The proteins were identified as: purH (bifunctional purine biosynthesis protein), purM (phosphoribosylaminoimidazole synthase), yphF (phosphoribosylformylglycinamidine synthase PurS), and fhs (formyltetrahydrofolate synthetase). […]
Identification of proteins. The identity of proteins in chosen spots was determined by in-gel digestion and analysis of peptide profile and amino acid content using mass spectrometry. […]

[4] = 0.3% w/w inosine, 550 L tank without aeration, 30° C., pH 6.0

Compound: OC[C@H]1O[C@@H](n2cnc3c(O)ncnc32)[C@H](O)[C@@H]1O [inosine]
- Effect of enhancing agent on yield ([1]; 0.3% w/w inosine added to the anaerobic culture medium before the start of the fermentation): did not result in increased yields
- Yield according to Pearce [1, 4]: 4.98
- Yield as OD600 [1, 4]: 25.2
- Effect of enhancing agent on yield (biomass as OD600, FIG. 1) [2]: did not result in increased yields
- Protein spots present from the culture without inosine, but absent (or very weak) from the culture with inosine ([3]; 30° C., OD 0.8 (exponential growth), gels pH 4-7): less than 10 spots
- Absence/presence pattern of purine de novo synthesis protein spots ([3]; cells in stationary phase): a similar absence/presence pattern was obtained
